Entries after “also recorded” stand apart in the source; their conditions may differ.
Columns and labels:
[1] = system: cetuximab-resistant cell line R2 (LIM1215, KRAS G13D, RON Δ155); experiment: Cell death rate by trypan blue staining and cell counting, cetuximab-resistant line; type: cell-based; conditions: cetuximab-resistant cell line R2, 1 µM, 48 hours
Protocol: (§1) The parent cell line LIM1215 and the cetuximab-resistant cell line R2 were counted, and each of them was seeded at 3×10^5 cells in a 60 mm dish. After 24 hours, treatment with 1 µM of each of the compounds of Example 1, Example 2, Example 3, Example 4, Example 5, positive control 1 (BMS-777607), positive control 2 (crizotinib), and positive control 3 (cabozantinib) was performed. After 48 hours had elapsed since the treatment, the cells were collected, resuspended in 1x phosphate buffered saline (PBS), and stained with a trypan blue solution. The stained cells were counted using a hemocytometer. Cell counting was performed in duplicate, and the mean and the standard deviation were calculated.

parent cell line LIM1215 = experiment: Cell death rate by trypan blue staining and cell counting, cetuximab-sensitive parent line; type: cell-based; conditions: parent cell line LIM1215, 1 µM, 48 hours
Protocol: as §1

[2] = system: cell line R2 exhibiting secondary resistance to cetuximab, overexpressing β-catenin; experiment: Cell death induction after β-catenin overexpression, trypan blue exclusion assay; type: cell-based; conditions: 48 hours
Protocol: (§2) Subsequently, all cells were collected when 48 hours had elapsed. Cell death induction efficacy was compared and analyzed using a trypan blue exclusion assay. In addition, using these samples, changes in expression of respective proteins were compared and analyzed with the western blotting method.

[3] = system: pTyr-mRON, p-ERK, β-catenin, c-myc, cleaved caspase-3 in cell line R2; experiment: Western blotting of protein expression after empty vector or β-catenin transfection; type: cell-based
Protocol: The parent cell line LIM1215 and the cetuximab-resistant cell line R2 were counted. 2×10^6 cells of each cell line were washed with 1x PBS once and then lysed with 1x RIPA lysis buffer. The cell lysate was reacted on ice for 20 minutes, and then centrifuged at 13,000 rpm for 20 minutes at 4° C. to obtain a supernatant. After proteins in the obtained supernatant were quantified using Bradford method, 20 µg of the protein was subjected to sodium-polyacrylamide gel electrophoresis (SDS-PAGE).
Transfer was performed using polyvinylidene fluoride (PVDF) membrane. Then, each of phospho-RON antibody (MyBiosource, Inc., cat# MBS462024; 1:500), RON antibody (Santa Cruz Biotechnology, cat# sc-374626; 1:1,000), phospho-EGFR antibody (Cell Signaling Technology, Inc., cat# 2234; 1:1,000), EGFR antibody (Cell Signaling Technology, Inc., cat# 2232; 1:1,000), phospho-Akt antibody (Cell Signaling Technology, Inc., cat# 4060; 1:1,000), Akt antibody (Cell Signaling Technology, Inc., cat# 9272; 1:1,000), phospho-ERK antibody (Cell Signaling Technology, Inc., cat# 4370; 1:1,000), ERK antibody (Cell Signaling Technology, Inc., cat# 4695; 1:1,000), phospho-β-catenin antibody (Cell Signaling Technology, Inc., cat# 9561; 1:1,000), β-catenin antibody (Cell Signaling Technology, Inc., cat# 8480; 1:1,000), c-myc antibody (Santa Cruz Biotechnology, cat# sc-40; 1:500), and β-actin antibody (Santa Cruz Biotechnology, cat# sc-47778; 1:1,000) was diluted in 5% skim milk tris buffered saline with Tween 20 (TBS-T) solution and reacted at 4° C. overnight.
After completion of the reaction, washing with the TBS-T solution was performed three times for 10 minutes each. Subsequently, anti-mouse-HRP or anti-rabbit-HRP (Cell Signaling Technology, Inc., cat# 7074 or 7076; 1:2,000) was diluted in the 5% skim milk TBS-T solution, and then reacted at room temperature for 2 hours. Then, washing with the TBS-T solution was performed three times for 10 minutes each, and then development was performed using an ECL solution (GE Healthcare, cat# RPN2108).
as §2

[4] = system: cell line R2 exhibiting secondary resistance to cetuximab (LIM1215, KRAS G13D); experiment: Tumor growth inhibition in mice transplanted with cetuximab-resistant cell line R2; type: in vivo, BALB/c nude mice; conditions: R2 xenograft mice
Protocol: 5-Week-old female BALB/c nude mice were purchased and acclimatized for 1 week. […] The compound of Example 1 was orally administered when the tumor reached a size of about 100 mm^3. The compound of Example 1 was administered once a day for 2 weeks, and tumor size and body weight were measured twice a week.
(§3) After completion of the 4-week experiment, the experimental animals were euthanized, and then the tumors were extracted and weighed. In addition, with respect to the tumor tissues, changes in expressions of pTyr-mRON, mRON, β-catenin, and cleaved caspase-3 were analyzed with immunohistochemical staining.

[5] = system: pTyr-mRON, mRON, β-catenin, cleaved caspase-3 in tumor tissues; experiment: Immunohistochemical staining of extracted tumor tissues; type: in vivo, BALB/c nude mice; conditions: R2 xenograft
Protocol: as §3

[6] = cell line R2, β-catenin overexpressed
[7] = cell line R2 transfected with the empty vector

In the case of `COc1cc2c(Oc3ccc(NC(=O)c4c5c(cn(-c6ccc(F)cc6)c4=O)CCO5)cc3F)ccnc2cc1OCCN1CCOCC1` [Example 4, N-(3-Fluoro-4-((6-Methoxy-7-(2-Morpholinoethoxy)Quinolin-4-yl)Oxy)Phenyl)-5-(4-Fluorophenyl)-6-Oxo-2,3,5,6-Tetrahydrofuro[3,2-c]Pyridine-7-Carboxamide], the cell death rate [1] is reported as “cell death was effectively induced”.

With `C[C@@H](Oc1cc(-c2cnn(C3CCNCC3)c2)cnc1N)c1c(Cl)ccc(F)c1Cl` [positive control 2, reference compound] the cell death rate (parent cell line LIM1215) was “increased cell death rate” and the cell death rate [1] was “cell death was not induced”.

With `COc1cc2c(Oc3ccc(NC(=O)c4c5c(cn(-c6ccc(F)cc6)c4=O)CCO5)cc3F)ccnc2cc1OCCCN1CC(C#N)C1` [Example 5, N-(4-((7-(3-(3-Cyanoazetidine-1-yl)Propoxy)-6-Methoxyquinoline-4-yl)Oxy)-3-Fluorophenyl)-5-(4-Fluorophenyl)-6-Oxo-2,3,5,6-Tetrahydrofuro[3,2-c]Pyridine-7-Carboxamide] the cell death rate [1] was “cell death was effectively induced”.

For `CCOc1ccn(-c2ccccc2)c(=O)c1C(=O)Nc1ccc(Oc2ccnc3cc(-c4ccc(CNCCOC)cn4)sc23)c(F)c1.Cl` [Example 2, 4-Ethoxy-N-(3-Fluoro-4-{[2-(5-{[(2-Methoxyethyl)Amino]Methyl}Pyridine-2-yl)Thieno[3,2-b]Pyridine-7-yl]Oxy}Phenyl)-2-Oxo-1-Phenyl-1,2-Dihydropyridine-3-Carboxamide Hydrochloride], the cell death rate ([1]; Hydrochloride) was “cell death was effectively induced”.

`CCOc1ccn(-c2ccc(F)cc2)c(=O)c1C(=O)Nc1ccc(Oc2ccnc(N)c2Cl)c(F)c1` [positive control 1, reference compound] was tested, and the cell death rate (parent cell line LIM1215) was “cell death was not induced” and the cell death rate [1] was “cell death was not induced”.

`CCOc1ccn(-c2ccccc2)c(=O)c1C(=O)Nc1ccc(Oc2ccnc3cc(-c4ccc(CN5CCN(C)CC5)cn4)sc23)c(F)c1.Cl` [Example 3, 4-Ethoxy-N-{3-Fluoro-4-[(2-{5-[(4-Methylpiperazin-1-yl)Methyl]Pyridin-2-yl}Thieno[3,2-b]Pyridin-7-yl)Oxy]Phenyl}-2-Oxo-1-Phenyl-1,2-Dihydropyridine-3-Carboxamide Hydrochloride] was tested, and the cell death rate ([1]; Hydrochloride) was “cell death was effectively induced”.

For `CCOc1ccn(-c2ccc(F)cc2)c(=O)c1C(=O)Nc1ccc(Oc2ccnc3cc(-c4ccc(CN5CCOCC5)cn4)sc23)c(F)c1.Cl` [Example 1, 4-Ethoxy-N-[3-Fluoro-4-({2-[5-(Morpholinomethyl)Pyridine-2-yl]Thieno[3,2-b]Pyridine-7-yl}Oxy)Phenyl]-1-(4-Fluorophenyl)-2-Oxo-1,2-Dihydropyridine-3-Carboxamide Hydrochloride], the cell death rate ([1]; Hydrochloride) was “high cell death rate; also recorded: cell death was effectively induced”, the “cell death induction efficacy” value [2] was “reduced” and the “expression of pTyr-mRON” value ([3]; cell line R2, regardless of β-catenin, western blotting) was “decreased”. For the same compound, the expression of c-myc [3, 6] was “increased again”, the “expression of cleaved caspase-3” value [3, 6] was “decreased” and the “expression of p-ERK” value [3, 6] was “increased again”. For the same compound, the “expression of β-catenin” value [3, 6] was “increased again”, the expression of c-myc [3, 7] was “decreased” and the “expression of p-ERK” value [3, 7] was “decreased”. For the same compound, the “expression of β-catenin” value [3, 7] was “decreased”, the “Tumor growth inhibition (TGI, %)” value ([4]; 15 mg/kg, oral once a day) was 62.3±4.5% and the “tumor size inhibition effect as compared with cetuximab” value ([4]; small dose) was “remarkably excellent tumor size inhibition effect”. The “expression of cleaved caspase-3 in tumor tissue” value [5] was “increased”, the “expression of pTyr-mRON in tumor tissue” value [5] was “decreased” and the “expression of β-catenin in tumor tissue” value [5] was “decreased”.

Reference: patent publication US20230346790A1, “PHARMACEUTICAL COMPOSITION FOR PREVENTION OR TREATMENT OF CANCERS ASSOCIATED WITH KRAS MUTATION” (WELLMARKER BIO CO., LTD., priority 2020, published 2023)
